Measured values reported in patent US10202368B2, “CXCR7 receptor modulators” (IDORSIA PHARMACEUTICALS LTD, priority 2014, dated 2019).

The compounds below were run against CXCR7 (Homo sapiens (Human), UniProt P25106) (assay: PathHunter CHO-K1 CXCR7 β-arrestin assay (agonistic activity)). Conditions: β-arrestin recruitment in PathHunter CHO-K1 CXCR7 β-arrestin cells, 90 minutes at 37° C., geometric mean values.
Chain of CXCR7 (P25106 whole entry): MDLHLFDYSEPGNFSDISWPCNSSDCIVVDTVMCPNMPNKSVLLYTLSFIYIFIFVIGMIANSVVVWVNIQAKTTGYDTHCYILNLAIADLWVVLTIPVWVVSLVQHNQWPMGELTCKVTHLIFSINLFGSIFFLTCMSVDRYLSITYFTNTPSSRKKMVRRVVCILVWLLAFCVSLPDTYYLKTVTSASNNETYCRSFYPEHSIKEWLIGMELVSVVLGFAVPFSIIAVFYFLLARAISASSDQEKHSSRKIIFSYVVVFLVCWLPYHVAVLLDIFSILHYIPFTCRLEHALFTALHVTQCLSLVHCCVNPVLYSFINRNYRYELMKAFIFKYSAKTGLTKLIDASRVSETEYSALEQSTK
Chain of CXCR7 (P32121 whole entry partner): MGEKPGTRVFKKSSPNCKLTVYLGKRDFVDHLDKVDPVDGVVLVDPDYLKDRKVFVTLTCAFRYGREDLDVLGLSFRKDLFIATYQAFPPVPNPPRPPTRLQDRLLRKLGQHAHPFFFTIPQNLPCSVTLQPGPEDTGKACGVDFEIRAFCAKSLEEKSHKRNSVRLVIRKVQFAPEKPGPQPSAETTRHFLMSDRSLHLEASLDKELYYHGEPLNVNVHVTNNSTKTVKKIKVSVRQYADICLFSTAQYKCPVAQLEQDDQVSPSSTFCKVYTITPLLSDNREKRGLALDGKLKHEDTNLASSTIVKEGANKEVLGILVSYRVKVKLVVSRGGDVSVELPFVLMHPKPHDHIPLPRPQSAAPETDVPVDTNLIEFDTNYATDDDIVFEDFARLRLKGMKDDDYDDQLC
Assay type: cell-based
Description: The CXCI12 receptor and CXCR7 agonistic activities of the compounds of formula (I) are determined in accordance with the following experimental method.
The assay is using the PathHunter™ CHO-K1 CXCR7 β-arrestin cell line from DiscoverX. The system is based on the Enzyme Fragment Complementation Technology. Two complementing fragments of the β-galactosidase enzyme are expressed within stably transfected cells. The larger portion of β-gal, termed EA for Enzyme Acceptor, is fused to the C-terminus of b-arrestin 2. The smaller fragment, termed ProLink™ tag, is fused to CXCR7 at the C-terminus. Upon activation, b-arrestin is recruited which forces the interaction of ProLink and EA, allowing complementation of the two fragments of b-gal and the formation of a functional enzyme which is capable of hydrolysing the substrate and generating a chemiluminescent signal.
CHO-K1 CXCR7 β-arrestin cells are detached from culture dishes with a cell dissociation buffer (Invitrogen, #13151-014) and collected in growing medium (F12 HAMS 90% (v/v)/FCS 10% (v/v), Penicillin/streptomycin 1% (v/v)). 5000 cells per well (in 20 μl) are seeded in a 384 well plate (white-walled, clear bottom; BD Falcon #353274). The plate is incubated at 37° C./5% CO2 for 24 hours. Medium is then replaced by 20 μl OPTIMEM (Invitrogen #31985) for 3 to 4 hours. Test compounds are dissolved at 10 mM in DMSO and serially diluted in DMSO to 200× of the final concentration for dose response curves. Compounds are then diluted 1:33.3 in HBSS1X. 5 μl/well of HBSS1X/20 mM HEPES/0.2% BSA are added to the assay plate followed by addition of 5 μl/well of diluted compounds. CXCL12 (Peprotech #300-28A) may be used as a reference agonist. The plate is incubated for 90 minutes at 37° C. 12 μl of detection reagent (Path Hunter Detection Kit, DiscoveRx, #93-0001) is transferred to the assay plate and to the plate is incubated for 1 hour at room temperature. Luminescent signal is read in a microplate reader (FLUOstar Optima, bmg). The calculated EC50 values may fluctuate depending on the daily cellular assay performance. Fluctuations of this kind are known to those skilled in the art. Average EC50 values from several measurements are given as geometric mean values.
With CC(C)CN1CCOc2c(cccc2NCC(=O)N(CCN(C)C)Cc2ccccc2C(F)(F)F)C1 [Example 1, N-(2-Dimethylamino-ethyl)-2-(4-isobutyl-2,3,4,5-tetrahydro-benzo[f][1,4]oxazepin-9-ylamino)-N-(2-trifluoromethyl-benzyl)-acetamide] the EC50 was 8 nM. Work on CCN1CCOc2c(NCC(=O)N(CCN(C)C)Cc3ncccc3C(F)(F)F)cccc2C1=O [Example 58, N-(2-Dimethylamino-ethyl)-2-(4-ethyl-5-oxo-2,3,4,5-tetrahydro-benzo[f][1,4]oxazepin-9-ylamino)-N-(3-trifluoromethyl-pyridin-2-ylmethyl)-acetamide] yielded an EC50 of 74 nM. CCN1CCOc2c(NCC(=O)N(CCN(C)C)Cc3ccccc3C(F)(F)F)cccc2C1=O [Example 41, N-(2-Dimethylamino-ethyl)-2-(4-ethyl-5-oxo-2,3,4,5-tetrahydro-benzo[f][1,4]oxazepin-9-ylamino)-N-(2-trifluoromethyl-benzyl)-acetamide] showed an EC50 of 22 nM. For CCN1CCOc2c(cccc2NCC(=O)N(CCN(C)C)Cc2ccccc2C(F)(F)F)C1 [Example 5, N-(2-Dimethylamino-ethyl)-2-(4-ethyl-2,3,4,5-tetrahydro-benzo[f][1,4]oxazepin-9-ylamino)-N-(2-trifluoromethyl-benzyl)-acetamide], the EC50 was 7 nM. For CC(C)NCCN(Cc1ccccc1C(F)(F)F)C(=O)CNc1cccc2c1CN(CC1CC1)CCO2 [Example 89, 2-(4-Cyclopropylmethyl-2,3,4,5-tetrahydro-benzo[f][1,4]oxazepin-6-ylamino)-N-(2-isopropylamino-ethyl)-N-(2-trifluoromethyl-benzyl)-acetamide], the EC50 was 5 nM. CC(C)CN1CCOc2c(cccc2NCC(=O)N(CCN2CCC(F)(F)CC2)Cc2ncccc2Cl)C1 [Example 13, N-(3-Chloro-pyridin-2-ylmethyl)-N-[2-(4,4-difluoro-piperidin-1-yl)-ethyl]-2-(4-isobutyl-2,3,4,5-tetrahydro-benzo[f][1,4]oxazepin-9-ylamino)-acetamide] gave an EC50 of 88 nM. Compound COc1ccnc(CN(CCN(C)C)C(=O)CNc2cccc3c2OCCN(CC(C)C)C3)c1 [Example 9, N-(2-Dimethylamino-ethyl)-2-(4-isobutyl-2,3,4,5-tetrahydro-benzo[f][1,4]oxazepin-9-ylamino)-N-(4-methoxy-pyridin-2-ylmethyl)-acetamide] has an EC50 of 200 nM. With CCN1CCNc2c(cccc2NCC(=O)N(CCN(C)C)Cc2ccccc2C(F)(F)F)C1 [Example 21, N-(2-(dimethylamino)ethyl)-2-((4-ethyl-2,3,4,5-tetrahydro-1H-benzo[e][1,4]diazepin-9-yl)amino)-N-(2-(trifluoromethyl)benzyl)acetamide] the EC50 was 6 nM. For CCN1CCOc2c(cccc2NCC(=O)N(CCN(C)C)Cc2ncccc2C)C1 [Example 73, N-(2-Dimethylamino-ethyl)-2-(4-ethyl-2,3,4,5-tetrahydro-benzo[f][1,4]oxazepin-9-ylamino)-N-(3-methyl-pyridin-2-ylmethyl)-acetamide], the EC50 was 59 nM. In the case of CCN1CCOc2c(cccc2NCC(=O)N(CCN2CCCC2)Cc2ncccc2C(F)(F)F)C1 [Example 74, 2-(4-Ethyl-2,3,4,5-tetrahydro-benzo[f][1,4]oxazepin-9-ylamino)-N-(2-pyrrolidin-1-yl-ethyl)-N-(3-trifluoromethyl-pyridin-2-ylmethyl)-acetamide], the EC50 is reported as 5 nM. In the case of CC(C)CN1CCOc2c(cccc2NCC(=O)N(CCN2CCOCC2)Cc2ccccc2C(F)(F)F)C1 [Example 16, 2-(4-Isobutyl-2,3,4,5-tetrahydro-benzo[f][1,4]oxazepin-9-ylamino)-N-(2-morpholin-4-yl-ethyl)-N-(2-trifluoromethyl-benzyl)-acetamide], the EC50 is reported as 74 nM. In the case of CC(C)NCCN(Cc1ccccc1C(F)(F)F)C(=O)CNc1cccc2c1N(C)CCN(CC1CC1)C2=O [Example 46, 2-(4-Cyclopropylmethyl-1-methyl-5-oxo-2,3,4,5-tetrahydro-1H-benzo[e][1,4]diazepin-9-ylamino)-N-(2-isopropylamino-ethyl)-N-(2-trifluoromethyl-benzyl)-acetamide], the EC50 is reported as 5 nM. With CC(C)CN1CCOc2c(cccc2NCC(=O)N(CCN2CCCC2)Cc2ccccc2Cl)C1 [Example 15, N-(2-Chloro-benzyl)-2-(4-isobutyl-2,3,4,5-tetrahydro-benzo[f][1,4]oxazepin-9-ylamino)-N-(2-pyrrolidin-1-yl-ethyl)-acetamide] the EC50 was 11 nM. CC(C)CN1CCOc2c(cccc2NCC(=O)N(CCN2CCCC2)Cc2ccc(F)cc2F)C1 [Example 12, N-(2,4-Difluoro-benzyl)-2-(4-isobutyl-2,3,4,5-tetrahydro-benzo[f][1,4]oxazepin-9-ylamino)-N-(2-pyrrolidin-1-yl-ethyl)-acetamide] was tested, and the EC50 was 14 nM. CN(C)CCN(Cc1ccccc1Cl)C(=O)CNc1cccc2c1CN(CC1CC1)CCO2 [Example 86, N-(2-Chloro-benzyl)-2-(4-cyclopropylmethyl-2,3,4,5-tetrahydro-benzo[f][1,4]oxazepin-6-ylamino)-N-(2-dimethylamino-ethyl)-acetamide] was tested, and the EC50 was 14 nM. CC(C)(C)NCCN(Cc1ncccc1C(F)(F)F)C(=O)CNc1cccc2c1CN(CC1CC1)CCO2 [Example 94, N-(2-tert-Butylamino-ethyl)-2-(4-cyclopropylmethyl-2,3,4,5-tetrahydro-benzo[f][1,4]oxazepin-6-ylamino)-N-(3-trifluoromethyl-pyridin-2-ylmethyl)-acetamide] gave an EC50 of 4 nM. CN(C)CCN(Cc1ccccc1C(F)(F)F)C(=O)CNc1cccc2c1CCCN(CC1CC1)C2 [Example 28, 2-(2-Cyclopropylmethyl-2,3,4,5-tetrahydro-1H-benzo[c]azepin-6-ylamino)-N-(2-dimethylamino-ethyl)-N-(2-trifluoromethyl-benzyl)-acetamide] showed an EC50 of 3 nM. In the case of CC(C)(C)NCCN(Cc1ncccc1Cl)C(=O)CNc1cccc2c1CN(CC1CC1)CCO2 [Example 92, N-(2-tert-Butylamino-ethyl)-N-(3-chloro-pyridin-2-ylmethyl)-2-(4-cyclopropylmethyl-2,3,4,5-tetrahydro-benzo[f][1,4]oxazepin-6-ylamino)-acetamide], the EC50 is reported as 10 nM. For CN(C)CCN(Cc1cccc(Cl)c1Cl)C(=O)CNc1cccc2c1CN(CC1CC1)CCO2 [Example 88, 2-(4-Cyclopropylmethyl-2,3,4,5-tetrahydro-benzo[f][1,4]oxazepin-6-ylamino)-N-(2,3-dichloro-benzyl)-N-(2-dimethylamino-ethyl)-acetamide], the EC50 was 15 nM. Compound CC(C)(C)NCCN(Cc1ccccc1C(F)(F)F)C(=O)CNc1cccc2c1C(=O)N(CC1CC1)CCO2 [Example 29, N-(2-tert-Butylamino-ethyl)-2-(4-cyclopropylmethyl-5-oxo-2,3,4,5-tetrahydro-benzo[f][1,4]oxazepin-6-ylamino)-N-(2-trifluoromethyl-benzyl)-acetamide] has an EC50 of 3 nM. Work on CC(=O)N1CCc2cccc(OCC(=O)N(CCN(C)C)Cc3ccccc3C(F)(F)F)c2CC1 [Example 25, 2-(3-Acetyl-2,3,4,5-tetrahydro-1H-benzo[d]azepin-6-yloxy)-N-(2-dimethylamino-ethyl)-N-(2-trifluoromethyl-benzyl)-acetamide] yielded an EC50 of 3 nM. For CN(C)CCN(Cc1cccc(Cl)c1Cl)C(=O)CNc1cccc2c1C(=O)N(CC1CC1)CCO2 [Example 30, 2-(4-Cyclopropylmethyl-5-oxo-2,3,4,5-tetrahydro-benzo[f][1,4]oxazepin-6-ylamino)-N-(2,3-dichloro-benzyl)-N-(2-dimethylamino-ethyl)-acetamide], the EC50 was 7.8 nM. CC(C)NCCN(Cc1ccccc1C(F)(F)F)C(=O)CNc1cccc2c1OCC(=O)N(CC1CC1)C2 [Example 68, 2-(4-Cyclopropylmethyl-3-oxo-2,3,4,5-tetrahydro-benzo[f][1,4]oxazepin-9-ylamino)-N-(2-isopropylamino-ethyl)-N-(2-trifluoromethyl-benzyl)-acetamide] was tested, and the EC50 was 15 nM. For CN1CCN(CC2CC2)C(=O)c2cccc(NCC(=O)N(CCNC(C)(C)C)Cc3ccccc3C(F)(F)F)c21 [Example 43, N-(2-tert-Butylamino-ethyl)-2-(4-cyclopropylmethyl-1-methyl-5-oxo-2,3,4,5-tetrahydro-1H-benzo[e][1,4]diazepin-9-ylamino)-N-(2-trifluoromethyl-benzyl)-acetamide], the EC50 was 4 nM. With CN(C)CCN(Cc1ccccc1C(F)(F)F)C(=O)CNc1cccc2c1N(C)CCN(CC1CC1)C2=O [Example 42, 2-(4-Cyclopropylmethyl-1-methyl-5-oxo-2,3,4,5-tetrahydro-1H-benzo[e][1,4]diazepin-9-ylamino)-N-(2-dimethylamino-ethyl)-N-(2-trifluoromethyl-benzyl)-acetamide] the EC50 was 7 nM.
